Assay results taken from patent US12642773B2, “Coated drug compositions and methods of preparing the same” (Applied Materials, Inc., priority 2020, dated 2026).
Converted amounts (≈) assume the structure as drawn.

Experiment: Solubility of ezetimibe
Type: physicochemical
Text: Crystallization decreases the solubility of ezetimibe. […] In contrast, the release rate from coated 50% drug loading ASD particles barely changed.

Compound	solubility
O=C1[C@H](CC[C@H](O)c2ccc(F)cc2)[C@@H](c2ccc(O)cc2)N1c1ccc(F)cc1 [amorphous ezetimibe, ezetimibe]	20.2 ± 0.4 µg/mL (≈ 49.3 µM)
O=C1[C@H](CC[C@H](O)c2ccc(F)cc2)[C@@H](c2ccc(O)cc2)N1c1ccc(F)cc1 [crystalline ezetimibe, ezetimibe]	0.8 ± 0.3 µg/mL (≈ 1.95 µM)
